Reference: PubChem BioAssay AID463204 (Broad Institute, 2010)
Activity calls are given as the source filed them.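 How the source made its calls: active means AC50 no more than ten times the top concentration tested, that is within one log above it; inconclusive means flat curve fit with activity between 30% and 70%, or invalid poor fit; inactive means AC50 beyond ten times the top tested dose.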

System: S. cerevisiae Mot1-301 ts growth rescue, BacTiter-Glo ATP luminescence
Experiment: growth rescue of Mot1-301 ts yeast, confirmation, SUMOylation pathway inhibitor project, whole organism, S. cerevisiae, Mot1-301 ts mutant, luminescence, dose retest (AID 463204);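 further: growth at restrictive 38.5 degrees C of Mot1-301 OY566 strain; actives raise luminescence by restoring growth of the ts mutant at high temperature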

Which AC50 does the source give for `O=C(O)C1C2CCC(O2)C1C(=O)NCCC1=CCCCC1` (centres undefined) here?
The AC50 was > 42 µM (inactive).

How did the AC50 turn out when `O=C(NCc1cccnc1)C1CCN(S(=O)(=O)c2cccnc2)CC1` was run?
The AC50 was > 42 µM (inactive).

For `CC1CN(Cc2ccccc2)c2nc3c(c(=O)[nH]c(=O)n3C)n2C1` (centres undefined), which AC50 is on record?
The AC50 was > 42 µM (inactive).

With `CCN(CC)c1nc(Nc2ccc(Cl)cc2)nc(OCC#N)n1` as the compound, how does the AC50 read?
The AC50 was > 42 µM (inactive).

For `COc1ccc(NC2CCCN(C(=O)CCc3scnc3C)C2)cc1` (centres undefined), which AC50 is on record?
Its AC50 is > 42 µM (inactive).

Which AC50 does the source give for `O=C1NC(=O)N(Cc2ccccc2)C1=O` here?
Its AC50 is > 42 µM (inactive).

For `Cc1ccc(NC(=O)N[C@H](C(=O)O)C(C)C)c(C)c1`, which AC50 is on record?
The AC50 was > 42 µM (inactive).

How did the AC50 turn out when `Cc1cccc(N2C(=O)/C(=C/c3cccnc3)SC2=S)c1` was run?
Its AC50 is > 42 µM (inactive).

For `Cc1cc(Nc2nc3c(c(=O)n(C)c(=O)n3C)n2C)n(-c2ccc(Cl)cc2)n1`, which AC50 is on record?
The AC50 was > 42 µM (inactive).

With `Cn1c(=O)nc2n(Cc3ccccc3)c3ccccc3cc-2c1=O` as the compound, how does the AC50 read?
The AC50 was > 42 µM (inactive).

`C=CCSc1nnc2c(n1)[nH]c1c(C)cccc12` was tested. Which AC50 did it give?
The AC50 was > 42 µM (inactive).

How did the AC50 turn out when `CC(C)c1ccc(C2C(C(=O)c3ccco3)=C(O)C(=O)N2CCN2CCOCC2)cc1` (centres undefined) was run?
The AC50 was > 42 µM (inactive).

For `O=C(COc1cccc2cccnc12)N1CCc2ccccc21`, which AC50 is on record?
The AC50 was > 42 µM (inactive).

Which AC50 does the source give for `O=C(COC(=O)C1COc2ccccc2O1)NC1CCS(=O)(=O)C1` (centres undefined) here?
The AC50 was > 42 µM (inactive).

Which AC50 does the source give for `Cc1cc2nc(CCl)cc(=O)n2[nH]1` here?
The AC50 was > 42 µM (inactive).

With `Cc1c(NC(C)c2cc(Cl)ccc2O)c(=O)n(-c2ccccc2)n1C` (centres undefined) as the compound, how does the AC50 read?
Its AC50 is > 42 µM (inactive).

Which AC50 does the source give for `COc1ccccc1-c1sc2ccccc2c1-c1ccc2c(c1)OCO2` here?
Its AC50 is > 42 µM (inactive).

How did the AC50 turn out when `CCOC(=O)c1sc2ncn(C(CC)C(=O)OCC)c(=O)c2c1C` (centres undefined) was run?
Its AC50 is > 42 µM (inactive).

With `Cn1c(CCN2CCOCC2)nc2cc(NC(=O)COc3ccccc3)ccc21` as the compound, how does the AC50 read?
The AC50 was > 42 µM (inactive).

For `CS(=O)(=O)NCc1ccc(C(=O)NC2CCCCC2)cc1`, which AC50 is on record?
The AC50 was > 42 µM (inactive).

How did the AC50 turn out when `COc1cc(/C=N/NC(=O)c2cccnc2)ccc1OCC(=O)N1CCOCC1` was run?
Its AC50 is > 42 µM (inactive).

For `O=C(O)CCSc1ccc([N+](=O)[O-])cc1[N+](=O)[O-]`, which AC50 is on record?
Its AC50 is 8.27 µM.

How did the AC50 turn out when `Cc1ccc2nc(N/N=C/c3ccccc3F)nc(-c3ccccc3)c2c1` was run?
The AC50 was > 42 µM (inactive).

For `COCCn1c(N)c(N(Cc2ccccc2)C(=O)CN2C(=O)NC(C)(c3ccccc3)C2=O)c(=O)[nH]c1=O` (centres undefined), which AC50 is on record?
Its AC50 is > 42 µM (inactive).

With `CCC1SC2=NC(C)=C(C(=O)OCCOC)C(c3ccc(C(=O)OC)cc3)N2C1=O` (centres undefined) as the compound, how does the AC50 read?
Its AC50 is > 42 µM (inactive).

How did the AC50 turn out when `O=C(COc1ccc(-n2cnnn2)cc1)NCCc1ccc(F)cc1` was run?
Its AC50 is > 42 µM (inactive).

Which AC50 does the source give for `CCc1cc2c(=O)c(-c3nc4ccccc4n3C)c(C)oc2c(CN2CCOCC2)c1O` here?
Its AC50 is > 42 µM (inactive).

With `CCOC(=O)C(NC(=O)c1ccccc1)(N1CCOCC1)C(F)(F)F` (centres undefined) as the compound, how does the AC50 read?
The AC50 was > 42 µM (inactive).

Which AC50 does the source give for `COc1cc(/C=N/n2c(C3CCCCC3)n[nH]c2=S)cc(OC)c1O` here?
The AC50 was > 42 µM (inactive).

How did the AC50 turn out when `CCOc1ccc(S(=O)(=O)N2CCN(C(=O)CN3C(=O)NC4(CCCC4)C3=O)CC2)cc1` was run?
The AC50 was > 42 µM (inactive).

With `O=C(CSc1ncccc1C(=O)O)NC1CCCCC1` as the compound, how does the AC50 read?
The AC50 was > 42 µM (inactive).

How did the AC50 turn out when `COc1c(C)cc(S(=O)(=O)NC2CC(C)(C)NC(C)(C)C2)c(C)c1C` was run?
The AC50 was > 42 µM (inactive).

How did the AC50 turn out when `COc1ccc2nc(NC(=O)c3cc(S(=O)(=O)N4CCOCC4)ccc3C)sc2c1` was run?
Its AC50 is > 42 µM (inactive).

With `O=c1c2ccccc2ncn1Cc1ccc2c(c1)OCO2` as the compound, how does the AC50 read?
The AC50 was > 42 µM (inactive).

With `O=S(=O)(Nc1cccc2cn[nH]c12)c1ccc(F)cc1` as the compound, how does the AC50 read?
Its AC50 is > 42 µM (inactive).

How did the AC50 turn out when `CN(C)C(/C=C/Nc1cccc(Br)c1)=C(C#N)C#N` was run?
Its AC50 is > 42 µM (inactive).

For `O=[N+]([O-])c1cc([N+](=O)[O-])c2cc3ccccc3nc2c1`, which AC50 is on record?
The AC50 was 2.63 µM.

For `COc1ccccc1N(CC(=O)NCC1CCCO1)C(=O)CCC(=O)Nc1cc(C)on1` (centres undefined), which AC50 is on record?
The AC50 was > 42 µM (inactive).

`CCN1CCCC(NC(=O)c2scc3c2CCCC3)C1` (centres undefined) was tested. Which AC50 did it give?
Its AC50 is > 42 µM (inactive).

`CCOc1ccc(N(C(=O)C2CCCO2)C2C=CS(=O)(=O)C2)cc1` (centres undefined) was tested. Which AC50 did it give?
The AC50 was > 42 µM (inactive).

For `CCOC(=O)c1ccc(CNC(=O)C2CCCCC2C(=O)OCC(F)(F)F)o1` (centres undefined), which AC50 is on record?
Its AC50 is > 42 µM (inactive).

Which AC50 does the source give for `O=C1CC(c2ccccc2)c2ccc(O)cc2O1` (centres undefined) here?
The AC50 was > 42 µM (inactive).

`COc1ccc(C2SCC(=O)Nc3c2c(=O)[nH]n3C2CCCCC2)cc1` (centres undefined) was tested. Which AC50 did it give?
The AC50 was > 42 µM (inactive).

For `Cc1ccc(C(=O)NCCCN2CCOCC2)cc1`, which AC50 is on record?
The AC50 was > 42 µM (inactive).

How did the AC50 turn out when `CC(CN1CCCCCC1)C(=O)NN` (centres undefined) was run?
Its AC50 is > 42 µM (inactive).

How did the AC50 turn out when `O=C(NCCCN1CCN(c2ccccc2F)CC1)Nc1ccccc1[N+](=O)[O-]` was run?
The AC50 was > 42 µM (inactive).

With `CC1(OC(=O)C2CCCC2)C(=O)C=C2C=C(c3ccsc3)OC=C2C1=O` (centres undefined) as the compound, how does the AC50 read?
The AC50 was > 42 µM (inactive).

`CC(=O)N1CCN(CC(O)COc2ccc(OCc3ccccc3)cc2)CC1` (centres undefined) was tested. Which AC50 did it give?
The AC50 was > 42 µM (inactive).

For `O=S(=O)(O)c1ccc(N=NNc2ccc(Br)cc2)cc1`, which AC50 is on record?
The AC50 was > 42 µM (inactive).

Which AC50 does the source give for `COc1cc(/C=C(\C#N)C(=O)Nc2ccc(C(=O)O)cc2)ccc1OC(=O)c1cccc(F)c1` here?
Its AC50 is > 42 µM (inactive).

How did the AC50 turn out when `Cc1cccc(OCCC(=O)Nc2ccc(F)c(F)c2)c1` was run?
Its AC50 is > 42 µM (inactive).

With `C/C(CC1(O)C(=O)Nc2ccccc21)=N\O` (centres undefined) as the compound, how does the AC50 read?
The AC50 was > 42 µM (inactive).

Which AC50 does the source give for `O=C(Nc1ccc([N+](=O)[O-])cn1)C1CC1` here?
Its AC50 is > 42 µM (inactive).

With `O=C(NCC1CCCO1)C1CC(c2ccc(Cl)c(Cl)c2)=NO1` (centres undefined) as the compound, how does the AC50 read?
Its AC50 is > 42 µM (inactive).

How did the AC50 turn out when `N#CCC(=O)N/N=C/c1ccc(OS(=O)(=O)c2ccccc2)cc1` was run?
Its AC50 is > 42 µM (inactive).

`CCOc1ccc(OCC)c(NC(=O)C2COc3ccccc3O2)c1` (centres undefined) was tested. Which AC50 did it give?
The AC50 was > 42 µM (inactive).

How did the AC50 turn out when `COC(=O)CN1C(=O)c2cccc3cccc1c23` was run?
The AC50 was > 42 µM (inactive).

Which AC50 does the source give for `COc1ccc2c(c1)OC[C@H]1[C@H]2N2C(=O)c3cc(OC)c(OC)cc3NC(=O)[C@@]2(C)[C@H]1c1ccccc1` here?
The AC50 was 5.49 µM.

How did the AC50 turn out when `CN(C)C(=O)CNC(=O)C1CCCCC1` was run?
Its AC50 is > 42 µM (inactive).

How did the AC50 turn out when `CCc1cc2c(NCCO)ncnc2s1` was run?
The AC50 was > 42 µM (inactive).

How did the AC50 turn out when `CC1=Nc2ccccc2/C1=C\c1nc(-c2ccccc2)oc1O` was run?
The AC50 was > 42 µM (inactive).

How did the AC50 turn out when `COCCn1c(SCC(=O)Nc2nc3ccccc3s2)nnc1-c1ccoc1C` was run?
Its AC50 is > 42 µM (inactive).

For `CN(C(=O)COc1cc(=O)n(C)c2ccccc12)c1ccc(Cl)cc1`, which AC50 is on record?
Its AC50 is > 42 µM (inactive).

`COc1ccccc1NS(=O)(=O)c1cc(Cl)ccc1OC` was tested. Which AC50 did it give?
The AC50 was > 42 µM (inactive).

Which AC50 does the source give for `CC(C)c1ccc2c(c1)CCC1C(C)(CN)CCCC21C` (centres undefined) here?
The AC50 was 14.3 µM.

With `CN(NC(=O)c1ccccc1F)c1nc(C(F)(F)F)nc2ccccc12` as the compound, how does the AC50 read?
The AC50 was > 42 µM (inactive).

`CN(C)c1ccc2nc3ccc(=[N+](C)C)cc-3sc2c1` was tested. Which AC50 did it give?
Its AC50 is > 42 µM (inactive).

How did the AC50 turn out when `COc1ccccc1N1C(=O)c2ccccc2NC1C(OC)OC` (centres undefined) was run?
The AC50 was > 42 µM (inactive).

With `O=c1cnc2cc([N+](=O)[O-])ccc2[nH]1` as the compound, how does the AC50 read?
Its AC50 is > 42 µM (inactive).

How did the AC50 turn out when `COc1cc(S(=O)(=O)N2CCN(c3ccccc3)CC2)ccc1F` was run?
Its AC50 is > 42 µM (inactive).

How did the AC50 turn out when `O=C1CCN(Cc2ccccc2)CCN1CCOc1ccccc1` was run?
The AC50 was > 42 µM (inactive).

For `Cc1ccccc1Cn1cc(NC(=O)c2cc3nc(-c4ccco4)cc(C(F)(F)F)n3n2)cn1`, which AC50 is on record?
Its AC50 is > 42 µM (inactive).

How did the AC50 turn out when `O=C1c2nccnc2C(=O)N1c1ccc(C(F)(F)F)cc1` was run?
The AC50 was > 42 µM (inactive).

Which AC50 does the source give for `CCN(CC)CC(=O)Nc1ccc(Oc2ccc(NC(=O)CN(CC)CC)cc2)cc1` here?
Its AC50 is > 42 µM (inactive).
